# Source: patent US20260256792A1, “TREATMENT OF CHRONIC SPONTANEOUS URTICARIA BY ADMINISTERING (R)-2-[3-[4-AMINO-3-(2-FLUORO-4-PHENOXY-PHENYL)PYRAZOLO[3,4-D]PYRIMIDIN-1-YL]PIPERIDINE-1-CARBONYL]-4-METHYL-4-[4-(OXETAN-3-YL)PIPERAZIN-1-YL]PENT-2-ENENITRILE” (priority 2023, published 2026)
# System: moderate-to-severe chronic spontaneous urticaria (CSU)
# Test: Phase 2 CSU study: urticaria activity score over 7 days (UAS7)
# Type: in vivo, human
# Details: Omalizumab-naïve, 400 mg QPM
# From the text: The study comprises a 12 week, randomized, double-blind, placebo-controlled, multi-center, dose-ranging efficacy and safety phase, followed by a 40 week open label extension (OLE) phase (see FIG. 1). The study consists of three phases and an optional OLE phase. […] Clinically, CSU is characterized by the spontaneous and recurrent appearance of pruritic hives. The proposed primary endpoints were the UAS7 at Week 12 in EU and EU reference countries and the ISS7 in the US. Regardless of where a participant was from, all assessments were the same. The UAS7 score is a composite score containing both the HSS7 and the ISS7. This allowed a global assessment of the two key components of urticaria: hives and itch. […] The UAS is a validated PRO measure. […] The daily UAS scores range from 0 to 6 point/day. […] Patients were to complete the UAS using the e-diary. […] The following secondary endpoints were to be analyzed using the same approach as for the primary endpoint: • Change from baseline in UAS7 at Week 4 • Change from baseline in UAS7 at Week 12 (for US and US reference countries) • Change from baseline in ISS7 at Week 12 (except US and US reference countries) • Change from baseline in HSS7 at Week 12 The following responder secondary endpoints were to be analyzed using the Cochran-Mantel-Haenszel test adjusted by region: • Proportion of participants with UAS7<6 at Week 12 • Proportion of participants with UAS7=0 at Week 12 Participants who received selected prohibited medications and/or rescue medications were to be considered as non-responders for time points after the medication usage. For other participants, all available data including those collected during the off-treatment period were to be used to determine the responder/non-responder status. Missing data were to be considered as non-responders.
compound,measurement,setting,value
"CC(C)(C=C(C#N)C(=O)N1CCC[C@@H](n2nc(-c3ccc(Oc4ccccc4)cc3F)c3c(N)ncnc32)C1)N1CCN(C2COC2)CC1 [rilzabrutinib, (R)-2-[3-[4-amino-3-(2-fluoro-4-phenoxy-phenyl)pyrazolo[3,4-d]pyrimidin-1-yl]piperidine-1-carbonyl]-4-methyl-4-[4-(oxetan-3-yl)piperazin-1-yl]pent-2-enenitrile]","Non-responder n (%), UAS7 ≤6",Week 1,35 (94.6) n (%)
same,"OR for rilzabrutinib vs. placebo, UAS7 = 0",Week 1,"0.000 (NE,"
same,"RRD (%) for rilzabrutinib vs. placebo, UAS7 = 0",Week 1,−2.9 %
same,"RRD (%) for rilzabrutinib vs. placebo, UAS7 ≤6",Week 1,−0.0%
same,"Responder n (%), UAS7 = 0",Week 1,0 n (%)
same,"Responder n (%), UAS7 ≤6",Week 1,2 (5.4) n (%)
same,"Imputed non-responder n (%), UAS7 = 0",Week 2,0 n (%)
same,"Imputed non-responder n (%), UAS7 ≤6",Week 2,0 n (%)
same,"Non-responder n (%), UAS7 = 0",Week 2,37 (100) n (%)
same,"Non-responder n (%), UAS7 ≤6",Week 2,36 (97.3) n (%)
same,"OR for rilzabrutinib vs. placebo, UAS7 = 0",Week 2,"0.000 (NE,"
same,"OR for rilzabrutinib vs. placebo, UAS7 ≤6",Week 2,0.489
same,"RRD (%) for rilzabrutinib vs. placebo, UAS7 = 0",Week 2,−2.9 %
same,"RRD (%) for rilzabrutinib vs. placebo, UAS7 ≤6",Week 2,−2.7%
same,"Responder n (%), UAS7 = 0",Week 2,0 n (%)
same,"Responder n (%), UAS7 ≤6",Week 2,1 (2.7) n (%)
same,"Imputed non-responder n (%), UAS7 = 0",Week 3,0 n (%)
same,"Imputed non-responder n (%), UAS7 ≤6",Week 3,0 n (%)
same,"Non-responder n (%), UAS7 = 0",Week 3,37 (100) n (%)
same,"Non-responder n (%), UAS7 ≤6",Week 3,35 (94.6) n (%)
same,"OR for rilzabrutinib vs. placebo, UAS7 = 0",Week 3,"0.000 (NE,"
same,"OR for rilzabrutinib vs. placebo, UAS7 ≤6",Week 3,0.666
same,"RRD (%) for rilzabrutinib vs. placebo, UAS7 = 0",Week 3,−2.9 %
same,"RRD (%) for rilzabrutinib vs. placebo, UAS7 ≤6",Week 3,−2.5%
same,"Responder n (%), UAS7 = 0",Week 3,0 n (%)
same,"Responder n (%), UAS7 ≤6",Week 3,2 (5.4) n (%)
same,"Imputed non-responder n (%), UAS7 = 0",Week 4,1 (2.7) n (%)
same,"Imputed non-responder n (%), UAS7 ≤6",Week 4,1 (2.7) n (%)
same,"Non-responder n (%), UAS7 = 0",Week 4,37 (100) n (%)
same,"Non-responder n (%), UAS7 ≤6",Week 4,35 (94.6) n (%)
same,"OR for rilzabrutinib vs. placebo, UAS7 = 0",Week 4,"0.000 (NE,"
same,"OR for rilzabrutinib vs. placebo, UAS7 ≤6",Week 4,0.486
same,"RRD (%) for rilzabrutinib vs. placebo, UAS7 = 0",Week 4,−5.3 %
same,"RRD (%) for rilzabrutinib vs. placebo, UAS7 ≤6",Week 4,−5.0%
same,"Responder n (%), UAS7 = 0",Week 4,0 n (%)
same,"Responder n (%), UAS7 ≤6",Week 4,2 (5.4) n (%)
same,"Imputed non-responder n (%), UAS7 = 0",Week 5,2 (5.4) n (%)
same,"Imputed non-responder n (%), UAS7 ≤6",Week 5,2 (5.4) n (%)
same,"Non-responder n (%), UAS7 = 0",Week 5,36 (97.3) n (%)
same,"Non-responder n (%), UAS7 ≤6",Week 5,35 (94.6) n (%)
same,"OR for rilzabrutinib vs. placebo, UAS7 = 0",Week 5,0.923
same,"OR for rilzabrutinib vs. placebo, UAS7 ≤6",Week 5,0.986
same,"RRD (%) for rilzabrutinib vs. placebo, UAS7 = 0",Week 5,−0.2 %
same,"RRD (%) for rilzabrutinib vs. placebo, UAS7 ≤6",Week 5,−0.1%
same,"Responder n (%), UAS7 = 0",Week 5,1 (2.7) n (%)
same,"Responder n (%), UAS7 ≤6",Week 5,2 (5.4) n (%)
same,"Imputed non-responder n (%), UAS7 = 0",Week 6,4 (10.8) n (%)
same,"Imputed non-responder n (%), UAS7 ≤6",Week 6,4 (10.8) n (%)
same,"Non-responder n (%), UAS7 = 0",Week 6,36 (97.3) n (%)
same,"Non-responder n (%), UAS7 ≤6",Week 6,34 (91.9) n (%)
same,"OR for rilzabrutinib vs. placebo, UAS7 = 0",Week 6,0.923
same,"RRD (%) for rilzabrutinib vs. placebo, UAS7 = 0",Week 6,−0.2 %
same,"RRD (%) for rilzabrutinib vs. placebo, UAS7 ≤6",Week 6,−7.8%
same,"Responder n (%), UAS7 = 0",Week 6,1 (2.7) n (%)
same,"Responder n (%), UAS7 ≤6",Week 6,3 (8.1) n (%)
same,"Imputed non-responder n (%), UAS7 = 0",Week 7,6 (16.2) n (%)
same,"Imputed non-responder n (%), UAS7 ≤6",Week 7,6 (16.2) n (%)
same,"Non-responder n (%), UAS7 = 0",Week 7,36 (97.3) n (%)
same,"Non-responder n (%), UAS7 ≤6",Week 7,36 (97.3) n (%)
same,"OR for rilzabrutinib vs. placebo, UAS7 = 0",Week 7,1.061
same,"OR for rilzabrutinib vs. placebo, UAS7 ≤6",Week 7,0.249
same,"RRD (%) for rilzabrutinib vs. placebo, UAS7 = 0",Week 7,0.2 %
same,"RRD (%) for rilzabrutinib vs. placebo, UAS7 ≤6",Week 7,−8.3%
same,"Responder n (%), UAS7 = 0",Week 7,1 (2.7) n (%)
same,"Responder n (%), UAS7 ≤6",Week 7,1 (2.7) n (%)
same,"Imputed non-responder n (%), UAS7 = 0",Week 8,7 (18.9) n (%)
